Results taken from patent publication US9700499B2, “Antimicrobial compositions” (GIVAUDAN SA, priority 2005, dated 2017).
Entries after “also recorded” stand apart in the source; their conditions may differ.

How the values were obtained:
Format in all cases: cell-based
[1] = system: Aspergillus niger ATCC 16404 spores; assay: Sporicidal effect of test compounds and preservatives in a cosmetic cream; details: for Enhancing activity in cream: 0.1% test compound with phenoxyethanol, complete killing of spores within 7 days; for Enhancing effect in the cosmetic cream in presence of phenoxyethanol: 0.2% test compound with phenoxyethanol
Description: A cosmetic cream (pH 5.5) for application to the human skin is formulated as follows (in % w/w): […]
Glyceryl-monostearate, Sweet almond oil, Cetyl-stearyl-alcohol and Glyceryl dilaurate are melted at 80° C. Xanthan gum is dispersed into glycerine. Arginine is dissolved in water and heated to 75° C. The Xanthan gum-glycerin suspension is added to the heated water phase, the heated oil phase is added and the suspension is stirred at 300 rpm for 10 min whilst being cooled down slowly. Finally, a homogeneous emulsion is made with a high speed homogenizer at 5000 rpm.
Test samples of cream contain different amounts of preservatives and/or preservative enhancer. The preservative and preservative enhancer is added to an aliquot of 10 g of the cream in 50 ml tubes to a concentration (w/w) of 0.1-0.5% as shown in the table below. After addition of the preservative/preservative enhancer, the cream is thoroughly mixed to achieve a homogeneous distribution.
After 1-3 days of equilibration of the cream (storage at room temperature to achieve a homogenous partitioning of compounds between oil and water phase), to each sample 100 μl of a spore suspension of Aspergillus niger ATCC 16404 containing 3×10^7 spores/ml (prepared as described in example 1) is added. After regular test intervals, samples of 1 g cream are removed and added to 20 ml of a neutralizer solution containing 0.2% lecithin, 2% Tween 80 and 0.5% NaCl. These dilutions are vigorously shaken for 10 min until the cream is dissolved, and then aliquots of this solution are spread plated on potato dextrose agar containing 0.2% Tween 80. After 48 h to 72 h the number of surviving colony forming units (and therefore surviving spores) are counted.
The sporidical effect in cream (prepared as described in example 2) is compared when using the test compounds alone or in combination with phenoxyethanol, benzyl alcohol or 2-Phenylethanol.
The experiments described in example 2-4 are performed with varying concentrations of test compound and preservative as indicated in Table 5.

[2] = system: Aspergillus niger ATCC 16404 spores; assay: Sporicidal effect of test compounds in water; details: for Reduction factor / Spores/ml: 0.1% test compound in water; for Reduction factor: after 7 days, count of negative control divided by count of test compound; for Spores/ml: spore count after 7 days; for Sporicidal effect (reduction of spore counts) in water: test compound alone in water at 0.1%
Description: Aspergillus niger ATCC 16404 spores are added to water to obtain a density of 3×10^5 spores/ml. In order to prepare the spores, the test strain is grown for 5 days on potato dextrose agar at room temperature. The spores are harvested with a solution containing 0.1% Tween 80, peptone 0.1% and NaCl 0.85% and the spore concentration is adjusted to the density indicated above.
Test compounds are dissolved in dipropyleneglycol to a concentration of 20%.
These stock solutions are added to 10 ml aliquots of the spore suspension to obtain a final concentration of the test compounds of 0.1%. The sporicidal effect is shown by a reduction of spore counts after 7 days.
The reduction factor is determined as follows. Aliquots of the above prepared suspension of microorganisms (here: spore suspension prepared as described above) are plated on a suitable agar medium (see above) and the developing colonies are counted both for samples with test compound and for a negative probe (water). The count of the negative control is divided by the count of the test compound and thereby the reduction factor is determined. A negative control (water) accordingly has a reduction factor of 1 (no effect on the microorganism).

[3] = system: Staphylococcus aureus (DSMZ 799) and Pseudomonas aeruginosa (ATCC 15442); assay: Activity against bacteria in cosmetic cream (mixed inoculum 1:1)
Description: As test organisms Staphylococcus aureus (DSMZ 799) and Pseudomonas aeruginosa (ATCC 15442) are used. The strains are grown overnight in Mueller-Hinton broth and adjusted to a cell density of 1×10^8 cfu (colony forming units) per ml.
The two bacterial strains are mixed in a ratio of 1:1 and 100 μl of this mixed inoculum is added to 10 ml aliquots of the cosmetic cream supplemented with test compounds as described in Example 2 in the concentration as indicated in the table below.
The resulting mixtures are incubated at room temperature and at the regular intervals samples are removed, suspended in neutralizer solution and diluted as described above (example 2).
Aliquots of these suspended and diluted samples are plated on tryptic soy agar supplemented with 0.5% Tween 80 and then incubated for 24 h at 37° C. Surviving bacteria are counted.

[4] = system: Candida albicans ATCC 10231, Candida guilliermondii ATCC 6260 and Candida parapsilosis ATCC 22019; assay: Activity against yeasts in cosmetic cream (mixture of three yeast strains 1:1:1)
Description: The same procedure as described above except for the changes mentioned below is performed with a mixture of the three yeast strains Candida albicans ATCC 10231, Candida guilliermondii ATCC 6260 and Candida parapsilosis ATCC 22019 that replace the bacterial strains.
The yeast strains are grown in Sabouraud liquid medium, washed and suspended in saline and adjusted to 5×10^7 cfu (colony forming units) per ml. The Inoculum of the three strains is then pooled in a ratio of 1:1:1. For determining the reduction factor by counting of the colonies formed, the samples inoculated with the yeast strains are spread plated on potato dextrose, incubated until colonies have formed and counted.

[5] = test compound (0.1% where given) with Phenoxyethanol 0.5% (Table 3)
[6] = test compound (0.1% where given) with Phenoxyethanol 0.5%, 7 d (Table 3)
[7] = test compound alone (0.1% where given), no preservative (Table 3)
[8] = test compound alone (0.1% where given), no preservative, 7 d (Table 3)
[9] = 0.1% test compound and 0.5% phenoxyethanol (Table 2)
[10] = 0.1% test compound and 0.5% phenoxyethanol, 7 d (Table 2)
[11] = test compound 0.1% with 2-Phenylethanol 0.5%
[12] = test compound 0.1% alone, no preservative
[13] = test compound 0.1% with Phenoxyethanol 0.5%
[14] = 0.2% test compound and 0.5% phenoxyethanol (Table 2)
[15] = 0.2% test compound and 0.5% phenoxyethanol, 7 d (Table 2)

SMILES: OCCc1ccccc1 [2-Phenylethanol, reference compound]
- Spores/ml after 7 d ([1]; preservative 0.5% alone, no test compound (Table 3)): 4.2 × 10^4 Spores/ml
- Reduction factor ([1]; preservative 0.5% alone, no test compound, 7 d (Table 3)): 2.5

SMILES: O=Cc1cc(O)cc(O)c1 [3,5-dihydroxybenzaldehyde]
- Spores/ml after 7 d [1, 5]: <100 Spores/ml
- Reduction factor [1, 6]: >1040
- Spores/ml after 7 d [1, 7]: 1 × 10^4 Spores/ml
- Reduction factor [1, 8]: 10

SMILES: O=Cc1cccc(O)c1 [3-hydroxybenzaldehyde]
- Spores/ml after 7 d [1, 9]: <100 Spores/ml
- Reduction factor [1, 10]: >737

SMILES: COc1cccc(C=O)c1 [3-methoxybenzaldehyde]
- Spores/ml after 7 d [1, 9]: <100 Spores/ml
- Reduction factor [1, 10]: >737

SMILES: COc1cc(O)ccc1C=O [4-hydroxy-2-methoxy-benzaldehyde]
- Spores/ml after 7 d [1, 5]: <100 Spores/ml
- Reduction factor [1, 6]: >1040
- Spores/ml after 7 d [1, 7]: 2.08 × 10^4 Spores/ml
- Reduction factor [1, 8]: 5

SMILES: O=Cc1ccc(O)cc1 [4-hydroxybenzaldehyde]
- Reduction factor [2]: <2
- Spores/ml [2]: >1.2 × 10^5 Spores/ml
- Sporicidal effect (reduction of spore counts) in water [2]: no significant sporicidal effect; also recorded: No significant reduction of spore counts
- Spores/ml after 7 d [1, 9]: <100 Spores/ml
- Reduction factor [1, 10]: >737
- Enhancing activity in cream [1]: excellent enhancing activity
- Reduction factor A. niger, 7 d ([1]; test compound 0.05% w/w with preservative (phenoxyethanol) 0.5% w/w (Table 5)): 66
- Reduction factor A. niger, 7 d ([1]; test compound 0.1% w/w with preservative (phenoxyethanol) 0.3% w/w (Table 5)): 295
- Reduction factor A. niger, 7 d ([1]; test compound 0.1% w/w with preservative (phenoxyethanol) 0.5% w/w (Table 5)): >1180
- Reduction factor A. niger, 7 d ([1]; test compound 0.1% w/w, preservative 0 (Table 5)): 2
- Spores/ml after 7 d ([1]; test compound 0.1% with 2-Phenylethanol 0.25% + benzylalcohol 0.25%): <100 Spores/ml
- Reduction factor ([1]; test compound 0.1% with 2-Phenylethanol 0.25% + benzylalcohol 0.25%, 7 d): >1040
- Spores/ml after 7 d [1, 11]: <100 Spores/ml
- Spores/ml after 7 d ([1]; test compound 0.1% with 2-Phenylethanol 0.5% + benzylalcohol 0.5%): <100 Spores/ml
- Reduction factor ([1]; test compound 0.1% with 2-Phenylethanol 0.5% + benzylalcohol 0.5%, 7 d): >1040
- Reduction factor ([1]; test compound 0.1% with 2-Phenylethanol 0.5%, 7 d): >1040
- Spores/ml after 7 d [1, 5]: <100 Spores/ml
- Reduction factor [1, 6]: >1040
- Spores/ml after 7 d [1, 7]: 1.0 × 10^5 Spores/ml
- Reduction factor [1, 8]: 1.04
- Enhancing effect of the test compound in presence of the preservative compound (phenoxyethanol) ([1]; varying concentrations (Table 5)): enhancing effect
- Bacteria (cfu/g cream) 24 h [3, 12]: 3.8 × 10^3 cfu/g cream
- Bacteria (cfu/g cream) 7 d [3, 12]: 1.28 × 10^4 cfu/g cream
- Bacteria (cfu/g cream) 24 h [3, 11]: 1 × 10^3 cfu/g cream
- Bacteria (cfu/g cream) 7 d [3, 11]: <200 cfu/g cream
- Bacteria (cfu/g cream) 24 h [3, 13]: 1.9 × 10^4 cfu/g cream
- Bacteria (cfu/g cream) 7 d [3, 13]: <200 cfu/g cream
- Yeasts (cfu/g cream) 48 h [4, 12]: 7.4 × 10^3 cfu/g cream
- Yeasts (cfu/g cream) 7 d [4, 12]: 2.2 × 10^5 cfu/g cream
- Yeasts (cfu/g cream) 48 h [4, 11]: <200 cfu/g cream
- Yeasts (cfu/g cream) 7 d [4, 11]: <200 cfu/g cream
- Yeasts (cfu/g cream) 48 h [4, 13]: <200 cfu/g cream
- Yeasts (cfu/g cream) 7 d [4, 13]: <200 cfu/g cream

SMILES: COc1ccc(C=O)cc1 [4-methoxybenzaldehyde]
- Reduction factor [2]: 5
- Spores/ml [2]: 4.68 × 10^4 Spores/ml
- Sporicidal effect (reduction of spore counts) in water [2]: No significant reduction of spore counts
- Sporicidal effect (reduction of spore counts) in water ([2]; listed as 4-methoxy-benzaldehyde): no significant sporicidal effect
- Spores/ml after 7 d [1, 9]: <100 Spores/ml
- Reduction factor [1, 10]: >737
- Enhancing activity in cream [1]: excellent enhancing activity
- Spores/ml after 7 d [1, 14]: <100 Spores/ml
- Reduction factor [1, 15]: >737
- Spores/ml after 7 d [1, 5]: <100 Spores/ml
- Reduction factor [1, 6]: >1040
- Spores/ml after 7 d [1, 7]: 2.8 × 10^3 Spores/ml
- Reduction factor [1, 8]: 37.1

SMILES: Cc1ccc(C=O)cc1 [4-methylbenzaldehyde]
- Spores/ml after 7 d [1, 9]: <100 Spores/ml
- Reduction factor [1, 10]: >737

SMILES: C=CCCCCCCCCO [9-decen-1-ol, reference compound]
- Reduction factor [2]: 23
- Spores/ml [2]: 1.1 × 10^4 Spores/ml
- Sporicidal effect (reduction of spore counts) in water [2]: significant sporicidal effect
- Spores/ml after 7 d [1, 14]: 2.44 × 10^4 Spores/ml
- Reduction factor [1, 15]: 2.1
- Enhancing effect in the cosmetic cream in presence of phenoxyethanol [1]: do not show an enhancing effect

SMILES: O=Cc1ccccc1 [Benzaldehyde, reference compound]
- Spores/ml after 7 d [1, 9]: <100 Spores/ml
- Reduction factor [1, 10]: >737

SMILES: CC(C)c1ccc(CO)cc1 [Cuminic alcohol, reference compound]
- Reduction factor [2]: <2
- Spores/ml [2]: >1.2 × 10^5 Spores/ml

SMILES: O=Cc1ccc2c(c1)OCO2 [Heliotropine]
- Spores/ml after 7 d [1, 9]: <100 Spores/ml
- Reduction factor [1, 10]: >737

SMILES: CC(CC=O)CCc1ccccc1 (centres unmarked) [Mefranal, 3-methyl-5-phenylpentanal, reference compound]
- Reduction factor [2]: 63
- Spores/ml [2]: 4 × 10^3 Spores/ml
- Sporicidal effect (reduction of spore counts) in water [2]: significant sporicidal effect
- Spores/ml after 7 d [1, 14]: 3.12 × 10^4 Spores/ml
- Reduction factor [1, 15]: 1.6
- Enhancing effect in the cosmetic cream in presence of phenoxyethanol [1]: do not show an enhancing effect

SMILES: COc1cc(C=O)ccc1O [Vanilline]
- Spores/ml after 7 d [1, 9]: <100 Spores/ml
- Reduction factor [1, 10]: >737
- Spores/ml after 7 d [1, 5]: <100 Spores/ml
- Reduction factor [1, 6]: >1040
- Spores/ml after 7 d [1, 7]: 1 × 10^4 Spores/ml
- Reduction factor [1, 8]: 10.4
